In patent US20220332845A1, “INHIBITION OF MTHFD1L FOR USE IN HYPERTROPHIC HEART DISEASE AND HEART FAILURE” (GENOME BIOLOGICS UG, priority 2019, published 2022):

Key:
[1] = tested on: primary neonatal rat cardiomyocytes (NRC); test: Immunofluorescent staining of NRCs: multinucleation and cell size; format: cell-based; settings: 10 μM ADP for 3 days
Experimental: Isolation of primary neonatal rat cardiomyocytes (NRC) was performed using the neonatal heart dissociation kit (130-098-373, Miltenyi Biotec) as recommended by the manufacturer. Isolated cells were pre-plated with plating medium (65% DMEM, 16% M199, 10% fetal calf serum (FCS), 5% horse serum (HS), 2% glutamine and 1% penicillin/streptomycin (P/S)) for 1.5 h to deplete of the fibroblasts. NRC were plated on Type-I Collagen-coated (Advanced Biomatrix) 3 cm dishes (Nunc) in plating medium. The plating medium was changed to maintenance medium (88% DMEM, 9% M199, 1% HS, 2% glutamine and 1% P/S) 24 h after isolation of NRCs. Cardiomyocytes were treated with 3,3′,5-Triiodo-L-thyronine (T3, T5516, Sigma Aldrich) for 6 days at a concentration of 15 nM. NRCs were stimulated with exogenous ADP (A2754, Sigma Aldrich) at a concentration of 10 μM for 3 days. NRC were randomly chosen for treatment the day after isolation.
Immunofluorescent stainings were performed as described previously (Krishnan et al. Cell Metab 9, 512-524 (2009)). After fixation of NRCs with 4% paraformaldehyde (PFA)/PBS, the cells were permeabilized and incubated with primary antibodies against sarcomeric α-actinin (A7811, Sigma Aldrich) and phospho-Histone H3 (Ser10) (05-817, Cell Signaling) diluted in 2% (v/v) HS for 1 h at RT. […] Cell size was quantified blinded using the software Image J (version 1.47).

NRCs [2] = test: ADP/ATP ratio in NRCs; format: cell-based, rat; settings: T3 15 nM for 6 days, scrLNA or miR27b-5p LNAs
Experimental: Mitochondria were isolated using the Mitochondria Isolation Kit for Cultured Cells (Abcam). Briefly, 1.2×10^6 NRCs were seeded per 6 cm dish and cells collected by scraping. After a freeze-thaw step to weaken the cell membrane, the cells were resuspended to a protein concentration of 5 mg/mL in Reagent A and incubated for 10 min on ice. The cells were homogenized with 30 strokes in a Dounce Homogenizer and centrifuged at 1000 g for 10 min at 4° C. The pellet was resuspended in the same volume of Reagent B than was used for Reagent A and rupturing and centrifugation was repeated. The supernatants after the two centrifugation steps were combined and centrifuged at 12000 g for 15 min at 4° C. Pellet was resuspended in 80 μL Reagent C supplemented with protease inhibitors and stored at −80° C. Mitochondrial ADP:ATP quantification was performed as recommended by the manufacturer (Abcam). 4×10^5 NRCs were seeded per well in a 3 cm dish and the assay was performed using the EnzyLight ADP/ATP Ratio Assay Kit (ELDT-100, Bioassay Systems) as recommended by the manufacturer. Luminescence was measured on a FLUOstar Omega plate reader (BMG).

NRCs [3] = test: [3H]leucine incorporation assay in NRCs; format: cell-based, rat; settings: T3 15 nM for 6 days, scrLNA or miR27b-5p LNAs
Experimental: [^3H]leucine incorporation assay was used to measure de novo protein synthesis as an indirect readout for cell growth (Fukuzawa et al. Hypertension 35, 1191-1196 (2000).). 4×10^5 cells were seeded per 3 cm dish. After 3 days, cells were serum-starved overnight. Next day, cells were cultured in leucine-free medium for 4h, followed by culturing in maintenance medium containing labeled […] (specific activity 30-60 Ci/mmol, ART0233, American Radiolabelled Chemicals) at a concentration of 0.5 μCi/mL for 20 h. The next day, cells were washed with PBS, trypsinized and the radioactivity was measured for 5 min in the liquid scintillation analyzer Tri-Carb 2800TR (Perkin Elmer). Cells were counted blinded with a Neubauer chamber after trypsinization and scintillation counts were normalized to absolute cell number.

SMILES	cardiomyocyte hypertrophy by cell size quantification [1]	multinucleation (percentage of multinucleated cells) [1]	ADP/ATP (NRCs [2])	hypertrophy ([3H]leucine incorporation) (NRCs [3])
Nc1ncnc2c1ncn2[C@@H]1O[C@H](COP(=O)(O)OP(=O)(O)O)[C@@H](O)[C@H]1O [ADP]	cardiomyocyte hypertrophy	sufficiency to induce multinucleation	–	–
N[C@@H](Cc1cc(I)c(Oc2ccc(O)c(I)c2)c(I)c1)C(=O)O [T3, 3,3′,5-Triiodo-L-thyronine]	–	–	increase	highly miR27b-dependent hypertrophy
